Assay results published in patent publication US7160892B2, “Pyrimidone compounds and pharmaceutical compositions containing the same” (Eisai Co., Ltd., priority 2001, dated 2007).

Tests used:
[1] = target: T1, human adenosine A2B receptor (Homo sapiens, UniProt P29275); experiment: Inhibition of NECA-stimulated production of cAMP in adenosine A2B receptor-expressing cells; format: cell-based; settings: read-out: I C50(nM) A2B
T1 construct: expressed in transfected cells; host or cells: CHOK1 cells
T1 sequence (P29275 1-332): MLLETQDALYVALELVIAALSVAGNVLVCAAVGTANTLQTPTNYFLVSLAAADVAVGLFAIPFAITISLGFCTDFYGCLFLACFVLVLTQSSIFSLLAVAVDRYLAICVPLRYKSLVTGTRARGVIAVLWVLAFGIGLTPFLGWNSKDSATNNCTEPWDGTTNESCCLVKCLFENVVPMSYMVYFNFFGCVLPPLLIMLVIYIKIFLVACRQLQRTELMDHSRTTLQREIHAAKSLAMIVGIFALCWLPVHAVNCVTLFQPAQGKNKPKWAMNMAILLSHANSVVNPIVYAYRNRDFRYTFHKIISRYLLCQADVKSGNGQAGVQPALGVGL
Protocol: Experiment of Inhibition of NECA-Stimulated Production of cAMP in Adenosine A2B Receptor-Expressing Cells
CHOK1 cells where human adenosine A2B receptor had been expressed in excess were plated onto a 24-well plate at a density of 1.5×10^5 cells/well, cultured overnight, and used in the experiment. […] That is, the adhering cells were washed twice with 2 ml/well Krebs-Ringer buffer solution (containing 0.1% BSA; pH 7.4) and pre-incubated for 30 minutes in a volume of 0.5 ml/well. […] After pre-incubation for 15 minutes, the reaction was terminated with 0.1 N HCl in a volume of 300 μl/well. Measurement of intracellular cAMP was carried out using a cAMP enzyme immunoassay kit produced by Amersham.

[2] = target: T2, human adenosine A1 receptor (Homo sapiens, UniProt P30542); experiment: Measurement of the binding ability to adenosine A1 receptor (3H-CCPA displacement, CHOK1 membranes); settings: read-out: K1(nM) A1
T2 construct: expressed in transfected cells; host or cells: CHOK1 cells (membrane sample)
T2 sequence (P30542 1-326): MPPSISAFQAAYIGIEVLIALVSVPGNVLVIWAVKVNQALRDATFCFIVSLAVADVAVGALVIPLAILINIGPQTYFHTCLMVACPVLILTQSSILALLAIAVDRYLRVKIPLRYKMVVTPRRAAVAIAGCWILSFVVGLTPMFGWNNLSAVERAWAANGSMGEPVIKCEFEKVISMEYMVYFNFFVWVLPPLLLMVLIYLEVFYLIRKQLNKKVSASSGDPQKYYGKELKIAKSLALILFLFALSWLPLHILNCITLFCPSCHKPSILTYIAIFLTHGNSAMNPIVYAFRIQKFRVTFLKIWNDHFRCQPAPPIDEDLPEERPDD
Protocol: Measurement of the Binding Ability to Adenosine A1 Receptor
A human adenosine A1 receptor cDNA was expressed in excess in CHOK1 cells, and this membrane sample was suspended at a protein concentration of 66.7 μg/ml in 20 mM HEPES buffer, pH 7.4 (10 mM MgCl2, 100 mM NaCl). To 0.45 ml of this membrane sample suspension were added 0.025 ml of 60 nM tritium-labeled chlorocyclopentyl adenosine (^3H—CCPA, from NEN Ltd.) and 0.025 ml of test compound. This mixture was left at 30° C. for 120 minutes, filtered rapidly under suction through a glass fiber filter (GF/B, from Whatman), and immediately washed twice with 5 ml of 50 mM water-cooled Tris-HCl buffer. Thereafter, the glass fiber filter was transferred to a vial, scintillator was added thereto, and the radioactivity on the filter was measured by a liquid scintillation counter. […]
In the above formula, the total binding means ^3H-CCPA-bound radioactivity in the absence of the test compound; the nonspecific binding means ^3H-CCPA-bound radioactivity in the presence of 100 μM RPIA ([R]-[1-methyl-2-phenylethyl] adenosine); and the binding in the presence of the test compound means ^3H-CCPA-bound radioactivity in the presence of the test compound at predetermined concentrations. The inhibition constant (Ki value) in the table was determined from the formula of Cheng-Prusoff.

adenosine A2A receptor = target: T3, adenosine A2A receptor (Homo sapiens, UniProt P29274); experiment: Measurement of the binding ability to adenosine A2A receptor (3H-CGS21680 displacement, membrane sample); settings: read-out: K1(nM) A2A
T3 construct: purchased Receptor Biology Inc
T3 sequence (P29274 whole entry): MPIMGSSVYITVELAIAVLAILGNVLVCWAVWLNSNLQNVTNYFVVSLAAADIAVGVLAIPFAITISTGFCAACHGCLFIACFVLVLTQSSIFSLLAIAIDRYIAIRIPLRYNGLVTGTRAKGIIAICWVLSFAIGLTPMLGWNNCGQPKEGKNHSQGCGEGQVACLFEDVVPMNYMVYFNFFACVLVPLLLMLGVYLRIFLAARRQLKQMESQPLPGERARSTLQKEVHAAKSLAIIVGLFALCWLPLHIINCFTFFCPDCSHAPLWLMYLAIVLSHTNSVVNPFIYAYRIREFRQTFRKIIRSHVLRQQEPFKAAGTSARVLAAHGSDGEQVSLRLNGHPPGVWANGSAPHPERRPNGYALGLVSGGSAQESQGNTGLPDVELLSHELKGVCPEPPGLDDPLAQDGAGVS
Protocol: Measurement of the Binding Ability to Adenosine A2A Receptor
An experiment of inhibition of binding to adenosine A2A receptor was conducted using a membrane sample (Receptor Biology Inc.) where an adenosine A2A receptor cDNA was expressed in excess. This membrane sample was suspended at a protein concentration of 22.2 μg/ml in 20 mM HEPES buffer, pH 7.4 (10 mM MgCl2 and 100 mM NaCl). To 0.45 ml of this membrane sample suspension were added 0.025 ml of 500 nM tritium-labeled 2-p-[2-carboxyethyl]phenetylamino-5′-N-ethylarboxyamide adenosine (^3H-CGS21680, from NEN) and 0.025 ml of test compound. […] Thereafter, the glass fiber filter was transferred to a vial, scintillator was added thereto, and the radioactivity on the filter was measured by a liquid scintillation counter. […]
Here, the total binding means ^3H-CGS21680-bound radioactivity in the […] of the test compound; the nonspecific binding means ^3H-CGS21680-bound radioactivity in the presence of 100 μM RPIA; and the binding in the […] of the test compound means ^3H-CGS21680-bound radioactivity in the […] of the test compound at predetermined concentrations. The inhibition constant (Ki value) in the table was determined from the formula of Cheng-Prusoff.

SMILES	IC50 [1] [nM]	Ki [2] [nM]	Ki (adenosine A2A receptor) [nM]
Nc1nc(-c2ccco2)c(-c2ccncc2)c(=O)[nH]1 [Example 2, 2-Amino-6-(2-furyl)-5-(4-pyridyl)-3,4-dihydro-4-pyrimidinone]	256	1110	345
Cn1c(N)nc(-c2ccco2)c(-c2ccncc2)c1=O [Example 7, 2-Amino-6-(2-furyl)-3-methyl-5-(4-pyridyl)-3,4-dihydro-4-pyrimidinone]	71	966	493
